The text below walks through data of patent US20130072440A1, “CO-CRYSTALS AND PHARMACEUTICAL FORMULATIONS COMPRISING THE SAME” (VERTEX PHARMACEUTICALS INCORPORATED, priority 2010, published 2013).

Structures are written as SMILES. Values after ≈ are worked out from the molar mass of the structure shown.

A short description of the data set: Kinetic solubility in Fed State Simulated Intestinal Fluid (FESSIF). Type of data set: physicochemical. Conditions: thermodynamic from solid. On the procedure: Kinetic solubility profiles of VX-950 co-crystal fluid bed granules were determined in Fed State Simulated Intestinal Fluid (FESSIF).
[…] of VX-950 co-crystal fluid-bed granules were dissolved in 100 ml of FESSIF.
The experiment of Example was repeated with 166.51 mg of VX-950 co-crystal fluid-bed granules.
Kinetic solubility of the following substances or formulations were measured in FESSIF: […]

`CCC[C@H](NC(=O)[C@@H]1[C@H]2CCC[C@H]2CN1C(=O)[C@@H](NC(=O)[C@@H](NC(=O)c1cnccn1)C1CCCCC1)C(C)(C)C)C(=O)C(=O)NC1CC1` [Crystalline VX-950]: the kinetic solubility – broadly, solubility judged after dilution from a stock solution rather than from solid – at 15 min is 5 µg/mL (≈ 7.35 µM); the solubility (kinetic) at 30 min is 5 µg/mL (≈ 7.35 µM); the solubility (kinetic) at 45 min is 5 µg/mL (≈ 7.35 µM); the kinetic solubility at 60 min was 4.5 µg/mL (≈ 6.62 µM). For the same compound, the kinetic solubility at 90 min is 4 µg/mL (≈ 5.88 µM) and the solubility (kinetic) at 180 min was 4 µg/mL (≈ 5.88 µM).
